assay type: physicochemical; conditions: HPLC on reversed phase columns, method [a]: pH 2.7, 0.1% formic acid in water / acetonitrile, linear gradient 10% to 95% acetonitrile

| Compound | log P |
| --- | --- |
| C#Cc1cnc2ccc(C3=NOC(C)(C(=O)NCC[Si](C)(C)C)C3)cc2c1 (stereo not shown) [compound 231] | 3.7^[a] |
| C#Cc1cnc2ccc(C3=NOC(C)(C(=O)NCC4CCCN4CC)C3)cc2c1 (stereo not shown) [compound 232] | 1.22^[a] |
| C#CCOc1coc(CNC(=O)C2(C)CC(c3ccc4ncc(C#C)cc4c3)=NO2)cc1=O (stereo not shown) [compound 233] | 1.98^[a] |
| CC1(C(=O)NC2COC2)CC(c2ccc3ncc(Br)cc3c2)=NO1 (stereo not shown) [compound 235] | 1.99^[a] |
| C#Cc1cnc2ccc(C3=NOC(C)(C(=O)NC4CCCCC4)C3)cc2c1 (stereo not shown) [compound 236] | 3.25^[a] |
| CC1(C(=O)NC2CCCCC2)CC(c2ccc3ncc(Br)cc3c2)=NO1 (stereo not shown) [compound 239] | 3.63^[a] |
| CN1C(C)(C)CC(NC(=O)C2(C)CC(c3ccc4ncc(Br)cc4c3)=NO2)CC1(C)C (stereo not shown) [compound 240] | 1.47^[a] |
| CC1(C(=O)NCC#Cc2ccc(Cl)cc2)CC(c2ccc3ncc(Br)cc3c2)=NO1 (stereo not shown) [compound 248] | 4.06^[a] |
| CC1(C(=O)NCC2CCCCC2)CC(c2ccc3ncc(Br)cc3c2)=NO1 (stereo not shown) [compound 249] | 3.96^[a] |
| C#Cc1cnc2ccc(C3=NOC(C)(C(=O)NCC4C5CC6CC(C5)CC4C6)C3)cc2c1 (stereo not shown) [compound 250] | 4.46^[a] |
| C#CCOc1coc(CNC(=O)C2(C)CC(c3ccc4ncc(Br)cc4c3)=NO2)cc1=O (stereo not shown) [compound 251] | 2.2^[a] |
| CC1(C(=O)NC2CCCCNC2=O)CC(c2ccc3ncc(Br)cc3c2)=NO1 (stereo not shown) [compound 252] | 2.23^[a] |
| C#Cc1cnc2ccc(C3=NOC(C)(C(=O)NCc4ccc5ccccc5n4)C3)cc2c1 (stereo not shown) [compound 253] | 2.45^[a] |
| CCCSc1cnc2ccc(C3=NOC(C)(C(=O)NC(C)C)C3)cc2c1 (stereo not shown) [compound 254] | 3.26^[a] |
| CC(C)NC(=O)C12CCCC1C(c1ccc3ncc(Br)cc3c1)=NO2 (stereo not shown) [compound 255] | 3.19^[a] |
| CCn1cc(CNC(=O)C2(C)CC(c3ccc4nc(OC)c(Br)cc4c3)=NO2)c(C)n1 (stereo not shown) [compound 263] | 2.96^[a] |
| CCCSc1cnc2ccc(C3=NOC(C)(C(=O)NCc4cn(CC)nc4C)C3)cc2c1 (stereo not shown) [compound 264] | 2.76^[a] |
| O=C(NC1CC1)C1(C2CC2)CC(c2ccc3ncc(Br)cc3c2)=NO1 (stereo not shown) [compound 269] | 2.88[a] |
| CCOCCCNC(=O)C1(C2CC2)CC(c2ccc3ncc(Br)cc3c2)=NO1 (stereo not shown) [compound 270] | 3.21[a] |
| CC(C)NC(=O)C12CCCCC1C(c1ccc3ncc(Br)cc3c1)=NO2 (stereo not shown) [compound 272] | 3.55[a] |
| CC(C)NC(=O)C1(C)ON=C(c2ccc3ncc(Br)cc3c2)C1C (stereo not shown) [compound 274] | 3.04[a] |
| COc1nc2ccc(C3=NOC(C)(C(=O)NC(C)C)C3)cc2cc1Br (stereo not shown) [compound 275] | 3.54[a] |
| CCSc1cnc2ccc(C3=NOC(C)(C(=O)NCc4cn(CC)nc4C)C3)cc2c1 (stereo not shown) [compound 276] | 2.39[a] |

same assay, conditions: method [a]: HPLC/LC-MS on reversed phase at pH 2.7, 0.1% formic acid in water / acetonitrile, linear gradient 10% to 95% acetonitrile

| Compound | log P |
| --- | --- |
| CC1(C(=O)NCc2cccnc2)CC(c2ccc3ncc(Br)cc3c2)=NO1 (stereo not shown) [compound 92] | 1.41^[a] |
| CC1(C(=O)NCc2ccccc2Cl)CC(c2ccc3ncc(Br)cc3c2)=NO1 (stereo not shown) [compound 93] | 3.61^[a] |
| CC1(C(=O)NCc2ccc(Cl)cc2)CC(c2ccc3ncc(Br)cc3c2)=NO1 (stereo not shown) [compound 94] | 3.61^[a] |
| CC1(C(=O)NCc2cnn(-c3ccccc3)n2)CC(c2ccc3ncc(Br)cc3c2)=NO1 (stereo not shown) [compound 96] | 3.5^[a] |
| CC1(C(=O)NCc2cc(Cl)cc(Cl)c2)CC(c2ccc3ncc(Br)cc3c2)=NO1 (stereo not shown) [compound 97] | 4.16^[a] |
| CC1(C(=O)NCc2ccc(OC(F)(F)F)cc2)CC(c2ccc3ncc(Br)cc3c2)=NO1 (stereo not shown) [compound 101] | 3.92^[a] |
| CC1(C(=O)NCc2ccncc2)CC(c2ccc3ncc(Br)cc3c2)=NO1 (stereo not shown) [compound 102] | 1.34^[a] |
| CCCn1cc(CNC(=O)C2(C(F)(F)F)CC(c3ccc4ncc(Br)cc4c3)=NO2)c(C)n1 (stereo not shown) [compound 107] | 3.33^[a] |
| CC1(C(=O)NCCc2ccc(Cl)cc2Cl)CC(c2ccc3ncc(Br)cc3c2)=NO1 (stereo not shown) [compound 110] | 4.16^[a] |
| CC1(C(=O)NCCc2ccc(Cl)cc2)CC(c2ccc3ncc(Br)cc3c2)=NO1 (stereo not shown) [compound 111] | 3.68^[a] |
| CC1(C(=O)NCC2CCOc3ccccc32)CC(c2ccc3ncc(Br)cc3c2)=NO1 (stereo not shown) [compound 112] | 3.48^[a] |
| CC1(C(=O)NCC2CCCOC2c2ccccc2)CC(c2ccc3ncc(Br)cc3c2)=NO1 (stereo not shown) [compound 113] | 3.5^[a] |
| Cc1cc2cc(CNC(=O)C3(C)CC(c4ccc5ncc(Br)cc5c4)=NO3)ccc2[nH]1 (stereo not shown) [compound 114] | 3.17^[a] |
| CC1(C(=O)NCc2ccc3[nH]ccc3c2)CC(c2ccc3ncc(Br)cc3c2)=NO1 (stereo not shown) [compound 116] | 2.92^[a] |
| CC1(C(=O)NCC2OCCc3ccccc32)CC(c2ccc3ncc(Br)cc3c2)=NO1 (stereo not shown) [compound 117] | 3.33^[a] |
| CC1(C(=O)NCc2ccc3c(c2)OCCO3)CC(c2ccc3ncc(Br)cc3c2)=NO1 (stereo not shown) [compound 118] | 3.04^[a] |
| CC1(C(=O)NCC2CCC(C(F)(F)F)CC2)CC(c2ccc3ncc(Br)cc3c2)=NO1 (stereo not shown) [compound 119] | 4.01^[a] |
| CC1(C(=O)NCc2ccc3c(c2)OCC3)CC(c2ccc3ncc(Br)cc3c2)=NO1 (stereo not shown) [compound 123] | 3.17^[a] |
| CN1C(=O)CCC1CNC(=O)C1(C)CC(c2ccc3ncc(Br)cc3c2)=NO1 (stereo not shown) [compound 124] | 1.85^[a] |
| CCN1CCCC1CNC(=O)C1(C)CC(c2ccc3ncc(Br)cc3c2)=NO1 (stereo not shown) [compound 126] | 1.37^[a] |
| CC(C)NC(=O)C1(c2ccccc2)CC(c2ccc3ncc(Br)cc3c2)=NO1 (stereo not shown) [compound 136] | 3.78^[a] |
| CC(C)NC(=O)C1(CCl)CC(c2ccc3ncc(Br)cc3c2)=NO1 (stereo not shown) [compound 139] | 3.01^[a] |
| CCn1cc(CNC(=O)C2(C)CC(c3ccc4ncc(-c5cccs5)cc4c3)=NO2)c(C)n1 (stereo not shown) [compound 142] | 2.63^[a] |
| CCn1cc(CNC(=O)C2(C)CC(c3ccc4ncc([S+](C)[O-])cc4c3)=NO2)c(C)n1 (stereo not shown) [compound 145] | 1.34^[a] |

| Compound | log P |
| --- | --- |
| CCn1cc(CNC(=O)C2(C)CC(c3ccc4ncc(S(C)(=O)=O)cc4c3)=NO2)c(C)n1 (stereo not shown) [compound 151] | 1.6^[a] |
| CCn1cnnc1CNC(=O)C1(C)CC(c2ccc3ncc(Br)cc3c2)=NO1 (stereo not shown) [compound 154] | 1.72^[a] |
| CC1(C(=O)NCc2ncc(C(F)(F)F)cc2Cl)CC(c2ccc3ncc(Br)cc3c2)=NO1 (stereo not shown) [compound 156] | 3.89^[a] |
| CC1(C(=O)NCc2ccnc(N3CCCC3)c2)CC(c2ccc3ncc(Br)cc3c2)=NO1 (stereo not shown) [compound 158] | 1.53^[a] |
| C#Cc1cnc2ccc(C3=NOC(C)(C(=O)NCc4nncn4CC)C3)cc2c1 (stereo not shown) [compound 159] | 1.54^[a] |
| CC1(C(=O)NCc2ccc3ccccc3n2)CC(c2ccc3ncc(Br)cc3c2)=NO1 (stereo not shown) [compound 165] | 2.75^[a] |
| C#Cc1cnc2ccc(C3=NOC(C)(C(=O)NCc4ccnc(N5CCCC5)c4)C3)cc2c1 (stereo not shown) [compound 166] | 1.42^[a] |
| C#Cc1cnc2ccc(C3=NOC(C)(C(=O)NCc4cccc(Cl)c4Cl)C3)cc2c1 (stereo not shown) [compound 172] | 3.58^[a] |
| CC1(C(=O)NCc2cccc(Cl)c2Cl)CC(c2ccc3ncc(Br)cc3c2)=NO1 (stereo not shown) [compound 174] | 4.01^[a] |
| C#Cc1cnc2ccc(C3=NOC(C)(C(=O)NCc4ccc(Oc5ccccc5)cc4)C3)cc2c1 (stereo not shown) [compound 175] | 3.8^[a] |
| Cn1cncc1CNC(=O)C1(C)CC(c2ccc3ncc(Br)cc3c2)=NO1 (stereo not shown) [compound 203] | 2.14^[a] |
| CC1(C(=O)NCc2nnco2)CC(c2ccc3ncc(Br)cc3c2)=NO1 (stereo not shown) [compound 204] | 2.17^[a] |
| CC1(C(=O)NCc2ccccc2Oc2ccccc2)CC(c2ccc3ncc(Br)cc3c2)=NO1 (stereo not shown) [compound 207] | 4.32^[a] |
| C#Cc1cnc2ccc(C3=NOC(C)(C(=O)NCCc4ccc(OC(F)(F)F)cc4)C3)cc2c1 (stereo not shown) [compound 209] | 3.55^[a] |
| C#Cc1cnc2ccc(C3=NOC(C)(C(=O)NCCc4ccc(Cl)cc4)C3)cc2c1 (stereo not shown) [compound 210] | 3.25^[a] |
| CC1(C(=O)NCCc2ccc(OC(F)(F)F)cc2)CC(c2ccc3ncc(Br)cc3c2)=NO1 (stereo not shown) [compound 211] | 3.96^[a] |
| C#Cc1cnc2ccc(C3=NOC(C)(C(=O)NCCc4ccc(Cl)cc4Cl)C3)cc2c1 (stereo not shown) [compound 212] | 3.7^[a] |
| C#Cc1cnc2ccc(C3=NOC(C)(C(=O)NC4CC(C)(C)N(C)C(C)(C)C4)C3)cc2c1 (stereo not shown) [compound 217] | 1.34^[a] |
| C#Cc1cnc2ccc(C3=NOC(C)(C(=O)NC4(C#C)CCCCC4)C3)cc2c1 (stereo not shown) [compound 218] | 3.48^[a] |
| CC1(C(=O)NCc2cccc3ccccc23)CC(c2ccc3ncc(Br)cc3c2)=NO1 (stereo not shown) [compound 224] | 3.85^[a] |
| CC1(C(=O)NCC[Si](C)(C)C)CC(c2ccc3ncc(Br)cc3c2)=NO1 (stereo not shown) [compound 228] | 4.14^[a] |
| C#Cc1cnc2ccc(C3=NOC(C)(C(=O)NCC#Cc4ccc(Cl)cc4)C3)cc2c1 (stereo not shown) [compound 229] | 3.65^[a] |
| C#Cc1cnc2ccc(C3=NOC(C)(C(=O)NC4CCCCNC4=O)C3)cc2c1 (stereo not shown) [compound 230] | 1.98^[a] |
